Laboratory results taken from the supplement of paper PMC10307832.

Tests used:
Test in all cases: relative viability (nuclei count vs DMSO), 5 days (fraction); higher = more cells survive
EPLC-272H = tested on: EPLC-272H
Outline: (§1)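 Dosing by pin tool came one day after lung cancer cell lines were seeded in 1536-well plates, using either one drug or a fixed anchor-drug dose plus five library-drug doses (not always all listed) in √10 steps. After 5 days, nuclei were counted on 4× images. Relative viability is treated-well nuclei count divided by vehicle-well nuclei count, and values are medians of duplicate plates.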

EMC-BAC-2 = tested on: EMC-BAC-2
Outline: as §1

EKVX = tested on: EKVX
Outline: as §1

COR-L 105 = tested on: COR-L 105
Outline: as §1

SW 1573 = tested on: SW 1573
Outline: as §1

LU99A = tested on: LU99A
Outline: as §1

LOU-NH91 = tested on: LOU-NH91
Outline: as §1

NCI-H1792 = tested on: NCI-H1792
Outline: as §1

HCC-78 = tested on: HCC-78
Outline: as §1

RERF-LC-KJ = tested on: RERF-LC-KJ
Outline: as §1

BEN = tested on: BEN
Outline: as §1

LCLC-97TM1 = tested on: LCLC-97TM1
Outline: as §1

NCI-H727 = tested on: NCI-H727
Outline: as §1

NCI-H1650 = tested on: NCI-H1650
Outline: as §1

NCI-H2126 = tested on: NCI-H2126
Outline: as §1

HCC-827 = tested on: HCC-827
Outline: as §1

NCI-H2087 = tested on: NCI-H2087
Outline: as §1

NCI-H1734 = tested on: NCI-H1734
Outline: as §1

ChaGo-K-1 = tested on: ChaGo-K-1
Outline: as §1

## Cc1cnc(-c2cnc(NCCNc3ccc(C#N)cn3)nc2-c2ccc(Cl)cc2Cl)[nH]1 + CC(C)C[C@H](NC(=O)[C@H](Cc1ccccc1)NC(=O)c1cnccn1)B(O)O [Bortezomib] (partner 0.002 µM)
EPLC-272H; first compound 0.08 µM
  relative viability: 0.938
EPLC-272H; first compound 0.253 µM
  relative viability: 0.84
EPLC-272H; first compound 0.8 µM
  relative viability: 0.834
EPLC-272H; first compound 2.53 µM
  relative viability: 0.903
EMC-BAC-2; first compound 0.08 µM
  relative viability: 1.17
EMC-BAC-2; first compound 0.253 µM
  relative viability: 1.07
EMC-BAC-2; first compound 0.8 µM
  relative viability: 1.01
EMC-BAC-2; first compound 2.53 µM
  relative viability: 1.07
EKVX; first compound 0.08 µM
  relative viability: 0.93
EKVX; first compound 0.253 µM
  relative viability: 0.948
EKVX; first compound 0.8 µM
  relative viability: 0.975
EKVX; first compound 2.53 µM
  relative viability: 0.961
COR-L 105; first compound 0.08 µM
  relative viability: 0.898
COR-L 105; first compound 0.253 µM
  relative viability: 0.754
COR-L 105; first compound 0.8 µM
  relative viability: 0.62
COR-L 105; first compound 2.53 µM
  relative viability: 0.445
SW 1573; first compound 0.08 µM
  relative viability: 1.09
SW 1573; first compound 0.253 µM
  relative viability: 0.899
SW 1573; first compound 0.8 µM
  relative viability: 1.13
SW 1573; first compound 2.53 µM
  relative viability: 0.925
LU99A; first compound 0.08 µM
  relative viability: 1.27
LU99A; first compound 0.253 µM
  relative viability: 1.12
LU99A; first compound 0.8 µM
  relative viability: 1.29
LU99A; first compound 2.53 µM
  relative viability: 1.18
LOU-NH91; first compound 0.08 µM
  relative viability: 0.488
LOU-NH91; first compound 0.253 µM
  relative viability: 0.519
LOU-NH91; first compound 0.8 µM
  relative viability: 0.491
LOU-NH91; first compound 2.53 µM
  relative viability: 0.491
NCI-H1792; first compound 0.08 µM
  relative viability: 0.89
NCI-H1792; first compound 0.253 µM
  relative viability: 0.657
NCI-H1792; first compound 0.8 µM
  relative viability: 0.876
NCI-H1792; first compound 2.53 µM
  relative viability: 0.915
HCC-78; first compound 0.08 µM
  relative viability: 0.645
HCC-78; first compound 0.253 µM
  relative viability: 0.457
HCC-78; first compound 0.8 µM
  relative viability: 0.443
HCC-78; first compound 2.53 µM
  relative viability: 0.41
RERF-LC-KJ; first compound 0.08 µM
  relative viability: 1.27
RERF-LC-KJ; first compound 0.253 µM
  relative viability: 1
RERF-LC-KJ; first compound 0.8 µM
  relative viability: 0.804
RERF-LC-KJ; first compound 2.53 µM
  relative viability: 0.931
BEN; first compound 0.08 µM
  relative viability: 0.623
BEN; first compound 0.253 µM
  relative viability: 0.786
BEN; first compound 0.8 µM
  relative viability: 0.725
BEN; first compound 2.53 µM
  relative viability: 0.797
LCLC-97TM1; first compound 0.08 µM
  relative viability: 0.844
LCLC-97TM1; first compound 0.253 µM
  relative viability: 0.647
LCLC-97TM1; first compound 0.8 µM
  relative viability: 0.709
LCLC-97TM1; first compound 2.53 µM
  relative viability: 0.362
NCI-H727; first compound 0.08 µM
  relative viability: 0.877
NCI-H727; first compound 0.253 µM
  relative viability: 0.808
NCI-H727; first compound 0.8 µM
  relative viability: 0.982
NCI-H727; first compound 2.53 µM
  relative viability: 0.889
NCI-H1650; first compound 0.08 µM
  relative viability: 0.207
NCI-H1650; first compound 0.253 µM
  relative viability: 0.214
NCI-H1650; first compound 0.8 µM
  relative viability: 0.24
NCI-H1650; first compound 2.53 µM
  relative viability: 0.207
NCI-H2126; first compound 0.08 µM
  relative viability: 1.09
NCI-H2126; first compound 0.253 µM
  relative viability: 1.09
NCI-H2126; first compound 0.8 µM
  relative viability: 1.12
NCI-H2126; first compound 2.53 µM
  relative viability: 1.15
HCC-827; first compound 0.08 µM
  relative viability: 1.01
HCC-827; first compound 0.8 µM
  relative viability: 0.877
HCC-827; first compound 2.53 µM
  relative viability: 1.07
NCI-H2087; first compound 0.08 µM
  relative viability: 0.997
NCI-H2087; first compound 0.253 µM
  relative viability: 0.683
NCI-H2087; first compound 0.8 µM
  relative viability: 0.771
NCI-H2087; first compound 2.53 µM
  relative viability: 0.808
NCI-H1734; first compound 0.08 µM
  relative viability: 0.942
NCI-H1734; first compound 0.253 µM
  relative viability: 0.897
NCI-H1734; first compound 0.8 µM
  relative viability: 0.87
NCI-H1734; first compound 2.53 µM
  relative viability: 0.734
ChaGo-K-1; first compound 0.08 µM
  relative viability: 1.07
ChaGo-K-1; first compound 0.253 µM
  relative viability: 0.886
ChaGo-K-1; first compound 0.8 µM
  relative viability: 0.598
ChaGo-K-1; first compound 2.53 µM
  relative viability: 0.991
